This is an account of results in patent US9045425B2, “Solid forms of N-[2,4-bis(1,1-dimethylethyl)-5-hydroxyphenyl]-1,4-dihydro-4-oxoquinoline-3-carboxamide” (Vertex Pharmaceuticals Incorporated, priority 2012, dated 2015).

Series [1] is described as follows: Desolvation: standing open under ambient conditions or in vacuum oven, form checked by XRPD. Type of series: physicochemical. As for the experimental part: A polymorph screen was conducted in the methylethyl ketone (MEK)/water solvent systems, as well as in the acetonitrile (ACN), ACN/water and isopropyl acetate solvent systems. Polymorph screening techniques included crash cooling, solvent evaporation, antisolvent addition, and slurry experiments. Slurry experiments were performed on an IKA RCT hot plate with magnetic stirring set to 710 rpm. The temperature was controlled with an IKA ETS-D5 thermocouple. Solvent volumes were measured and transferred with Gibson Pipetteman volumetric pipettes. New forms that were identified as solvates were subjected to desolvation under two potential conditions: (1) drying in a vacuum oven at 40° C. and (2) sitting undisturbed under ambient conditions in a fume hood. Physical characterization of all forms proceeded by X-ray powder diffraction (XRPD) and thermogravimetric analysis (TGA).
New forms of Compound 1 obtained in the polymorph screen suspected of being solvates were subjected to further form investigation through attempted desolvation. Forms D, E, F, G, H, I, J, K, L and Hydrate A were left to stand open to the atmosphere under ambient conditions and or were placed in a vacuum oven.

Series [2] in a line: Polymorph screen solvent systems: solubility noted when preparing saturated solutions. The series is classed as physicochemical. Conditions: solvent system: water. As for the experimental part:
A saturated solution of Compound 1, Form XX was made by preparing 1 mL slurries using acetonitrile (ACN), ACN-water (75:25), methylethyl ketone (MEK), or MEK-water (99:1, 90:10, or 80:20) in vials. After 24 hours in capped HPLC vials, the slurries were then filtered to remove residual solids. Approximately 2 additional milligrams of Compound 1 was added to each vial containing a saturated solution. Next, the vials were heated to 70° C. with stirring until all of the material was completely dissolved. Immediately after, the samples were submerged into an ice bath. The product, which precipitated as a white powder within 1 minute, was isolated by filtration and analyzed by XRPD and TGA.
A saturated solution was made by slurrying Compound 1, Form XX in 5 mL of solvent (ACN, isopropyl acetate (IPAc), or MEK) or 1 mL of solvent for the MEK/Water solvent system. After 24 hours, the residual solids were removed by filtration. The saturated solutions were then subjected to rapid solvent evaporation by blowing nitrogen (N2) gas over the samples with a Pierce Model 18780 Reacti-Vap evaporating unit for four hours. The product precipitated as a white powder and the form was analyzed by XRPD and TGA.
A saturated solution of Compound 1, Form XX was made by slurrying either in 5 mL of solvent in the ACN, IPAc, and MEK solvent systems, 2 mL total solvent for IPAc/water, or 1 mL total solvent for the MEK/water solvent systems. After 24 hours, the residual solids were removed by filtration. 20 mL of antisolvent was then quickly added to the saturated solutions to induce precipitation. Hexane was used as the antisolvent in the MEK and IPAc solvent systems, and MTBE was used as the antisolvent in the ACN solvent systems, as a consequence of the immiscibility between ACN and hexane. The product precipitated as a white powder and the form was analyzed by XRPD and TGA.

`CC(C)(C)c1cc(C(C)(C)C)c(NC(=O)c2c[nH]c3ccccc3c2=O)cc1O` [Form D, N-[2,4-bis(1,1-dimethylethyl)-5-hydroxyphenyl]-1,4-dihydro-4-oxoquinoline-3-carboxamide]: the “Solid form after desolvation attempt” value in series [1] (ambient conditions and vacuum oven for approximately 1 month) is given as “converted to a new crystalline form of Compound 1 designated Form R”. In the case of `CC(C)(C)c1cc(C(C)(C)C)c(NC(=O)c2c[nH]c3ccccc3c2=O)cc1O` [Compound 1, Form XX, N-[2,4-bis(1,1-dimethylethyl)-5-hydroxyphenyl]-1,4-dihydro-4-oxoquinoline-3-carboxamide], in series [2], the “Solubility in solvent system (antisolvent addition results)” value is reported as “not soluble”, the “Solubility in solvent system (crash cooling results)” value is recorded as “not soluble” and the “Solubility in solvent system (solvent evaporation results)” value is on record as “not soluble”. Turning to `CC(C)(C)c1cc(C(C)(C)C)c(NC(=O)c2c[nH]c3ccccc3c2=O)cc1O` [Form G, N-[2,4-bis(1,1-dimethylethyl)-5-hydroxyphenyl]-1,4-dihydro-4-oxoquinoline-3-carboxamide], the “Solid form after desolvation attempt” value in series [1] (vacuum oven for one month) was “became x-ray amorphous”. Take `CC(C)(C)c1cc(C(C)(C)C)c(NC(=O)c2c[nH]c3ccccc3c2=O)cc1O` [Form E, N-[2,4-bis(1,1-dimethylethyl)-5-hydroxyphenyl]-1,4-dihydro-4-oxoquinoline-3-carboxamide]: the “XRPD pattern after desolvation attempt” value in series [1] (after standing under ambient conditions and after sitting in the vacuum oven) is reported as “same XRPD patterns”. On to `CC(C)(C)c1cc(C(C)(C)C)c(NC(=O)c2c[nH]c3ccccc3c2=O)cc1O` [Form K, N-[2,4-bis(1,1-dimethylethyl)-5-hydroxyphenyl]-1,4-dihydro-4-oxoquinoline-3-carboxamide], for which the “Solid form after desolvation attempt” value in series [1] (ambient conditions and vacuum oven for 2 months) is “converted to a new crystalline form of Compound 1 designated Form S”.

As to `CC(C)(C)c1cc(C(C)(C)C)c(NC(=O)c2c[nH]c3ccccc3c2=O)cc1O` [Form H, N-[2,4-bis(1,1-dimethylethyl)-5-hydroxyphenyl]-1,4-dihydro-4-oxoquinoline-3-carboxamide], the figures for the “Solid form after desolvation attempt” value in series [1] (ambient conditions for one month) and in series [1] (vacuum oven for one month) were “same Form H pattern” and “converted to a semi-crystalline form”, respectively.

For the compound `CC(C)(C)c1cc(C(C)(C)C)c(NC(=O)c2c[nH]c3ccccc3c2=O)cc1O` [Form L, N-[2,4-bis(1,1-dimethylethyl)-5-hydroxyphenyl]-1,4-dihydro-4-oxoquinoline-3-carboxamide], the “Solid form after desolvation attempt” value in series [1] (ambient conditions for two weeks) is reported as “same Form L pattern”; in series [1] (vacuum oven for 24 hours) it was “converted to x-ray amorphous”.
